# Reference: patent US7361349B2, “Peptide, immunogenic composition and vaccine or medical preparation, a method to immunize animals against the hormone LHRH, and analogs of the LHRH tandem repeat peptide and their use as vaccine” (Pepscan Systems B.V., priority 1996, dated 2008)
# Entries after “also recorded” stand apart in the source; their conditions may differ. Non-standard residues stand in square brackets, D forms with d. pGlu = O=C1CC[C@@H](C(=O)O)N1
# Experiments:
# ^125I-GnRH = assay: GnRH antibodies: binding of pig antisera to 125I-GnRH; assay type: in vivo; conditions: for GnRH binding (average): Table 3, GnRH antibody binding percentage of 125I-GnRH, average per treatment
# Description: Antibodies to GnRH were determined as described by Meloen et al. (Vaccine 12, 741-746 (1994)). Serial dilutions of the pig antisera were allowed to bind to ^125I-GnRH. Titers are expressed as percentage binding of ^125I-GnRH at a given serum dilution.
# (§1) Serum samples of the 10 wpv bleeding (3 weeks post booster immunization) were diluted 1/10000 in PBS with 0.4% BSA (dilution buffer). Fifty μl serum dilution was put in microwell plates and 25 μl peptide solution (0, 0.25, 2.5 or 25 pmol peptide in dilution buffer per well) was added. This mixture was allowed to incubate for 24 hours at 4° C. The next day, 25 μl iodinated GnRH (approximately 13000 cpm) was added and after overnight storage (4° C.) unbound peptide was separated from bound peptide with charcoal. After centrifugation, supernatant was separated, counted and the percentage of iodinated GnRH bound to the antibodies was calculated.
# Male piglets = assay: Immunocastration of pigs: testis size and testis weight after immunization; assay type: in vivo, pig; conditions: for testis weight (g) (median (range)) / number responders/total number: Table 2; for testis weight (g) (median (range)): after slaughter at 13 wpv; for number responders/total number: effectiveness according to testis weight; for testis weight (median range): Table 3; for animals that did not respond to the immunization: number of animals per group of 7
# Description: Male piglets, approximately 10 weeks of age, were involved in this experiment. The crossbred piglets were housed in half-slatted pens and were given ad libitum access to feed and water.
# The piglets were randomly assigned to the treatments, 6 or 7 piglets per treatment. All animals were injected with 2 ml emulsion containing the dimerized tandem GnRH conjugates (i.e., […] peptide) or an emulsion without antigen. Injections were administered intramuscularly in the neck at the start of the experiment (day 0) and 7 weeks later (7 wpv). Thirteen weeks after initial immunization (13 wpv) all animals were slaughtered.
# Animals were weighed at day 0 and 7 and 13 wpv. Testis sizes were determined by measuring testis length with Vernier calipers at day 0, and 7, 10 and 13 weeks thereafter. Testis sizes were recorded as average of both testicles.
# After slaughter testes were removed, dissected free of epididymes and weighed. Testes weights were recorded as average of both testicles.
# [1] = tested on: peptides used for immunization; assay: Peptide antibodies ELISA of antisera; assay type: in vivo, pig; conditions: for anti peptide titer at 10 wpv: Table 3, mean titer against the peptide used for immunization
# Description: Antibodies to the peptides used for immunization were determined with an ELISA. Peptides were coated in the wells of a microtitreplate using glutardialdehyde (GDA). GDA was coated to the surface of the wells by incubation with 0.2% GDA in 0.1 M phosphate buffer (pH 5) for 4 hours at room temperature. Plates were rinsed 3 times for 10 minutes with 0.1 M phosphate buffer (pH 8). One microgram peptide in […] phosphate buffer (0.1 M, pH 8) was coated per well by incubating for 3 hours at 37° C. Plates were stored at −20° C. until used. Thawed plates were rinsed 3 times for 10 minutes with milli Q water containing 8.2 g NaCl, 1.15 g Na2HPO4.2H2O, 0.20 g NaH2PO4.2H2O and 5 ml of a 10% Tween 80 solution in water per liter water.
# Serial serum dilutions of the antipeptide sera were allowed to react with the coated peptides for 1 hour at 25° C. After rinsing 3 times for 10 minutes, goat-anti-pig IgG coupled to horseradish peroxidase (Dako, Glastrup, Denmark) was introduced as second antibody for 1 hour and ABTS (Boehringer, Mannheim, Germany) (([…] (2 g/100 ml) in 10 ml substrate buffer to which […] H2O2 (3% solution)) was used as substrate. Absorption was measured at 405 nm.
# GnRH-II = assay: GnRH antibody binding competitive radioimmunoassay, competition by GnRH-II; parameters: species or system pig; conditions: for sera with reduced binding to iodinated GnRH after competition by GnRH-II / binding of antibodies to GnRH-II: 10 wpv sera; for sera with reduced binding to iodinated GnRH after competition by GnRH-II / animals whose 10 wpv sera did not bind to GnRH-II: 1/10000 dilution; for sera with reduced binding to iodinated GnRH after competition by GnRH-II: share of sera per treatment; for binding of antibodies to GnRH-II: substantially all animals of the group; for animals whose 10 wpv sera did not bind to GnRH-II: 25 pmol peptide per well
# Description: To determine whether antibodies raised by the GnRH vaccines according to the present invention discriminated between GnRH-I and GnRH-II, a GnRH antibody binding assay was performed in order to determine whether antibodies rose against GnRH-I-tandem dimer peptide or its alanine replacement analogs bind to GnRH-II or lack binding to GnRH-II. Serum dilutions were preincubated with either GnRH-I, GnRH-II, a control peptide, or no peptide. Next, iodinated GnRH-I was added to compete with the preincubated peptides for binding to the antibodies.
# A GnRH antibody binding competitive radioimmunoassay was performed in order to determine whether antibodies raised against G6k-GnRH-tandem (SEQ ID NO: 9) dimer peptide or its alanine replacement analogs bind to GnRH-II or lack binding to GnRH-II. Serum dilutions were preincubated with either GnRH-I, GnRH-II, a control peptide or no peptide. Next, iodinated GnRH-I was added to compete with the preincubated peptides for binding to the antibodies.
# This procedure was performed for serum collected before and after booster immunization, as specificity of the antibodies may increase after booster immunization due to antibody maturation.
# as §1
# Antibodies collected after the first immunization (7 wpv) were tested in a 1/2000 serum dilution and only one peptide dilution was tested (25 pmol/well).
# testosterone = assay: Testosterone levels in serum (Coat-a-Count kit); assay type: in vivo, pig; conditions: for testosterone (pmol/ml) at 13 wpv median (range): Table 3, serum, n.d. = not detectable; for testosterone level (in words): after immunization
# Description: Blood samples were taken via puncture of the vena jugularis on the same days testis sizes were measured, and also 4 weeks after the initial immunization. Blood samples were kept overnight at 4° C. and the next day serum was obtained by centrifugation (1500 g, 15 min). Serum samples were stored at −20° C. until assayed.
# Testosterone levels in serum were determined using a Coat-a-Count kit purchased from DPC laboratories, Los Angeles, Calif.
# [2] = 7 wpv (before booster), 1/2000 dilution, 25 pmol/well
Substance,GnRH binding (average) (^125I-GnRH),testis weight (g) (median (range)) (Male piglets),number responders/total number (Male piglets),testis weight (median range) (Male piglets),animals that did not respond to the immunization (Male piglets),anti peptide titer at 10 wpv [1],sera with reduced binding to iodinated GnRH after competition by GnRH-II (GnRH-II),testes weight (in words) (Male piglets),testosterone (pmol/ml) at 13 wpv median (range) (testosterone),testosterone level (in words) (testosterone),animals whose prebooster sera showed binding to GnRH-II (GnRH-II; [2]),binding of antibodies to GnRH-II (GnRH-II),animals whose 10 wpv sera did not bind to GnRH-II (GnRH-II),"prebooster sera with no binding to iodinated GnRH (^125I-GnRH; 7 wpv (before booster), 1/2000 dilution)",prebooster sera that did not recognize GnRH-II (GnRH-II; [2]),antibody titers against the peptides used for immunization (in words) [1]
Y5A-G6k-GnRH-tandem ([pGlu]HWSA[dK]LRPGQHWSA[dK]LRPGC-NH2; also: dimer via Cys21),11.3%,44 (15-235) g,5/7,44 (15-235),2,2.92,half of the sera,–,–,–,–,–,–,–,–,–
G10A-G6k-GnRH-tandem ([pGlu]HWSY[dK]LRPAQHWSY[dK]LRPAC-NH2; also: dimerized through Cys 21),17.6%,14 (11-39) g,7/7,14 (11-39),–,3.19,all sera,low testes weight,n.d. (n.d.),undetectable testosterone levels; also recorded: low testosterone level,–,–,–,–,–,–
L7A-G6k-GnRH-tandem ([pGlu]HWSY[dK]ARPGQHWSY[dK]ARPGC-NH2; also: dimer via Cys21),17.6%,20 (12-195) g,6/7,20 (12-195),1,3.52,half of the sera,–,–,–,–,–,–,–,–,–
S4A-G6k-GnRH-tandem ([pGlu]HWAY[dK]LRPGQHWAY[dK]LRPGC-NH2; also: dimer via Cys21),16.9%,36 (10-69) g,7/7,36 (10-69),–,3.19,–,effective in terms of low testes weights; also recorded: low testes weight,n.d. (n.d.),undetectable testosterone levels; also recorded: low testosterone level,all animals,completely lacked binding to GnRH-II,6 out of 7,–,–,–
"pE1A-G6k-GnRH-tandem-dimer OVA conjugate (Ac-AHWSY[dK]LRPGAHWSY[dK]LRPGC-NH2; also: dimerized through Cys 21, ovalbumin conjugate)",15.7%,36 (16-65) g,7/7,36 (16-65),–,3.24,–,effective in terms of low testes weights,–,–,4 out of 7,completely lacked binding to GnRH-II,6 out of 7,one,Two,–
R8A-G6k-GnRH-tandem ([pGlu]HWSY[dK]LAPGQHWSY[dK]LAPGC-NH2; also: dimer via Cys21),17.7%,15 (10-19) g,7/7,15 (10-19),–,3.34,all sera,low testes weight,n.d. (n.d.),undetectable testosterone levels; also recorded: low testosterone level,–,–,–,–,–,–
"P9A-G6k-GnRH-tandem-dimer conjugate ([pGlu]HWSY[dK]LRAGQHWSY[dK]LRAGC-NH2; also: dimerized through Cys 21, ovalbumin conjugate)",15.8%,23 (8-300) g,6/7,23 (8-300),1,2.62,most of the sera,–,–,–,–,–,–,–,–,lower than peptide antibody titers of other treatments
